Laboratory results: the supplement of paper PMC9663587

Key:
Experiment in all cases: GRmax, 72 h; higher = less effect;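 also: breast cell lines in 384-well plates, nine doses across a 10^4 range, Dye Drop imaging of viable cells vs DMSO and time-zero plates, GR 0 means no net growth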
AU565 = test system: AU565
BT474 = test system: BT474
CAL51 = test system: CAL51
EFM19 = test system: EFM19
HCC1187 = test system: HCC1187
MCF12A = test system: MCF12A
MDAMB175VII = test system: MDAMB175VII
MDAMB231 = test system: MDAMB231
MDAMB361 = test system: MDAMB361
MGH312 = test system: MGH312
PDX1328 = test system: PDX1328
SUM185PE = test system: SUM185PE
SUM52PE = test system: SUM52PE
T47D = test system: T47D
ZR7530 = test system: ZR7530

Structure (SMILES)	GRmax, 72 h (AU565) [GR]	GRmax, 72 h (BT474) [GR]	GRmax, 72 h (CAL51) [GR]	GRmax, 72 h (EFM19) [GR]	GRmax, 72 h (HCC1187) [GR]	GRmax, 72 h (MCF12A) [GR]	GRmax, 72 h (MDAMB175VII) [GR]	GRmax, 72 h (MDAMB231) [GR]	GRmax, 72 h (MDAMB361) [GR]	GRmax, 72 h (MGH312) [GR]	GRmax, 72 h (PDX1328) [GR]	GRmax, 72 h (SUM185PE) [GR]	GRmax, 72 h (SUM52PE) [GR]	GRmax, 72 h (T47D) [GR]	GRmax, 72 h (ZR7530) [GR]	GRmax, 72 h (CAL51; main component drawn) [GR]	GRmax, 72 h (MDAMB231; main component drawn) [GR]	GRmax, 72 h (MDAMB361; main component drawn) [GR]	GRmax, 72 h (PDX1328; main component drawn) [GR]	GRmax, 72 h (T47D; main component drawn) [GR]
CO[C@@H](C)Cn1c(=O)n(C)c2cnc3ccc(-c4cncc(C(C)(C)O)c4)cc3c21 (max 10 µM)	-0.533	-0.844	-0.159	-0.255	-0.718	0.133	-0.938	-0.136	-0.988	-0.795	0.0061	-0.0606	-0.125	-0.289	-0.36	–	–	–	–	–
CCN1CCN(Cc2ccc(Nc3ncc(F)c(-c4cc(F)c5nc(C)n(C(C)C)c5c4)n3)nc2)CC1 (max 10 µM)	-0.321	0.301	-0.464	0.267	0.0999	0.393	-0.192	-0.487	-0.342	-0.461	-0.65	0.486	0.332	-0.0412	0.125	–	–	–	–	–
O=C(c1cc(Cc2n[nH]c(=O)c3ccccc23)ccc1F)N1CCN(C(=O)C2CC2)CC1 [Olaparib/AZD2281] (max 10 µM)	0.572	0.64	0.36	0.63	0.0867	0.832	0.466	0.618	0.0945	0.537	0.631	0.75	0.88	0.53	0.653	–	–	–	–	–
O=C(CCCCCCC(=O)Nc1ccccc1)NO [Vorinostat] (max 10 µM)	-0.491	-0.924	-0.0506	-0.248	-0.467	0.318	-0.867	-0.385	-0.939	-0.945	-0.285	0.222	0.0882	-0.157	-0.318	–	–	–	–	–
Cc1nc(Nc2ncc(C(=O)Nc3c(C)cccc3Cl)s2)cc(N2CCN(CCO)CC2)n1 [Dasatinib] (max 10 µM)	0.26	-0.42	0.0983	-0.0421	0.069	-0.0434	-0.714	-0.126	0.0805	0.0774	-0.401	0.388	-0.322	0.496	-0.0607	–	–	–	–	–
Nc1cc(C(F)(F)F)c(-c2cc(N3CCOCC3)nc(N3CCOCC3)n2)cn1 [Buparlisib/NVP-BKM120] (max 10 µM)	-0.555	-0.851	-0.388	-0.356	-0.608	-0.113	-0.976	-0.235	-0.958	-0.859	-0.351	0.0382	-0.183	-0.418	-0.408	–	–	–	–	–
COc1cc([C@@H]2c3cc4c(cc3[C@@H](O[C@@H]3O[C@@H]5CO[C@@H](C)O[C@H]5[C@H](O)[C@H]3O)[C@H]3COC(=O)[C@H]23)OCO4)cc(OC)c1O [Etoposide] (max 10 µM)	–	–	-0.21	–	–	–	–	0.12	-0.517	–	-0.281	–	–	-0.186	–	–	–	–	–	–
Cc1c(N)nc([C@H](CC(N)=O)NC[C@H](N)C(N)=O)nc1C(=O)N[C@H](C(=O)N[C@H](C)[C@@H](O)[C@H](C)C(=O)N[C@H](C(=O)NCCc1nc(-c2nc(C(=O)NCCC[S+](C)C)cs2)cs1)[C@@H](C)O)[C@@H](OC1OC(CO)C(O)C(O)C1OC1OC(CO)C(O)C(OC(N)=O)C1O)c1cnc[nH]1 (stereo not given in full) [Bleomycin] (max 10 µM)	–	–	–	–	–	–	–	–	–	–	–	–	–	–	–	-0.134	0.436	-0.266	0.306	-0.084
